Data taken from patent US12240890B2, “Compositions and methods for treating and/or preventing pathogenic fungal infection and for maintenance of microbiome commensalism” (priority 2017, dated 2025).
Where “and” joins values, the source holds several entries; their conditions need not be identical. Identical values can stand only once. No end group written: not given here.

Tested on: C. albicans strain SC5314
Test: crystal violet based biofilm assay (24 hours, OD600)
Format: cell-based, Candida albicans
Conditions: for Mean Normalized to vehicle control: biofilm OD600 values normalized to vehicle control, 24 hours; for efficacy in inhibiting formation of biofilm relative to PYY13-36: in vitro, Candida albicans; for inhibition of biofilm formation: crystal violet staining, 10-20 uM of respective peptides
Method: FIG. 13. […] Biofilm formation was measured in an assay that quantitates biofilms by staining with a crystal violet dye. The amount of dye absorbed by the biofilm positively correlates with amount of biofilm present. Amount of dye is measured via an optical density reading at a wavelength of 600 nm (OD600). Biofilm formation is measured over 24 hours in the presence or absence of peptides at 10, 30, or 40 uM concentrations.
Candida albicans (sc3514 cited in: Romanowski et al. PLOS One 7: e30119, 2012.: incorporated by reference in its entirety) and Candida tropicalis (ATCC #13803) were maintained in frozen glycerol stocks at −80° C. and streaked out on yeast-peptone-dextrose (YPD) agar plates for 48 hours at 30° C. prior to use. Single colonies were selected and cultured in YPD media at 30° C. Biofilm assays were performed using crystal violet straining (Taff et al. Med Mycol 50:214-218, 2012.: incorporated by reference in its entirety) in the presence of 10-20 uM of respective peptides. To induce hyphal growth, strains were placed in YPD+5% FBS or RPMI media at 37° C. for 4 hours. To image hyphal membrane disruption, the DNA binding fluorescent dye, propidium iodide (PI), was added to wells strains in the presence of peptides and imaged under bright field and far red fluorescent conditions. […] To investigate Candida albican virulence gene expression, 10 μL of a 1.0 OD600 culture were placed in 1 mL RPMI at 37° C. with shaking for 8 hours. Cultures were centrifuged at 3000×g for 5 minutes and RNA isolation was performed as described below.
Antifungal activity of peptides described in this application was tested by performing a crystal violet based biofilm assay. In this assay, Candida albicans is induced to form a biofilm in a 96-well plate for 24 hours in the presence or absence of peptide. Biofilm formation is quantitated through crystal violet staining and solubilization followed by optical density reading. […] Data are OD600 values normalized to appropriate within experiment vehicle control. Statistical analysis was performed via 2-Way ANOVA with multiple comparisons post-test. Significance is denoted by: *=p<0.05; **=p<0.01; ***-p<0.001; ****=p<0.0001. ns=not significant.

| Substance | Mean Normalized to vehicle control (10 μM peptide) | Mean Normalized to vehicle control (30 μM peptide) | Mean Normalized to vehicle control (40 μM peptide) | inhibition of biofilm formation at concentrations lower than PYY13-36 | efficacy in inhibiting formation of biofilm relative to PYY13-36 | inhibition of biofilm formation |
| --- | --- | --- | --- | --- | --- | --- |
| ASPEELNRYYASLRHYLNLVTRQRY [AVpeptide 18, (12-36)] | 1.11 | 0.16 | 0.05 |  |  |  |
| LPDELNRYYASLRKYLNLVTRQRY [AVpeptide 25, (S13L, E15D, H26K)] |  | 0.01 and 0.02 |  | greatly inhibited biofilm formation by C. albicans at concentrations lower than PYY13-36 | increased inhibition of biofilm formation |  |
| LPEELNRYYASLRHYLNLVTRQLY [AVpeptide 11, (S13L; R35L)] |  |  | 0.99 |  |  |  |
| LPEELNRYYASLRHYLNLVTRQRY [AVpeptide 10, (S13L)] |  |  | 0.17 |  |  |  |
| LPEELNRYYASLRHYLRLVTRQLY [AVpeptide 23, (S13L, N29R, R35L)] | 0.03 |  |  | greatly inhibited biofilm formation by C. albicans at concentrations lower than PYY13-36 | increased inhibition of biofilm formation |  |
| PEELNRYYASLRHYLNAVTRQLA [AVpeptide 4, (14-36, L30A; R35L; Y36A)] | 1.04 and 0.98 | 0.89 and 0.94 | 0.88 |  |  |  |
| PEELNRYYASLRHYLNAVTRQRY [AVpeptide 2, (14-36, L30A)] | 1.05 and 1.02 | 0.91 and 1.08 | 1.01 |  |  |  |
| PEELNRYYASLRHYLNLVTRQLY [AVpeptide 1, (14-36; R35L)] | 0.96 and 0.95 | 0.74 and 0.40 | 0.14 |  |  |  |
| PEELNRYYASLRHYLNLVTRQRA [AVpeptide 3, (14-36, Y36A)] | 1.00 and 0.94 | 0.90 and 0.93 | 0.91 |  |  |  |
| PYY1-12: N-terminal PYY fragment used as inactive comparison peptide (YPIKPEAPREDA; Peptide YY; UniProt P10082 29-40, looked up, fragment) [reference compound] |  |  |  |  |  | not a scrambled peptide control or PYY1-12, were capable of blocking biofilm formation |
| PYY14-36 Modified: PYY14-36 with Arginine replaced by Alanine (PEELNAYYASLAHYLNLVTAQAY; ends and bridges not checked) [reference compound] |  |  |  |  |  | reduced the inhibitory effect |
| PYY 1-36 Modified: PYY with charge modified by replacing Arginine with Alanine (YPIKPEAPGEDASPEELNAYYASLAHYLNLVTAQAY; ends and bridges not checked) [reference compound] |  |  |  |  |  | reduced the inhibitory effect |
| SPDELNRYYASLRKYLNLVTRQRY [AVpeptide 14, (E15D, H26K)] | 0.82 | 0.07 | 0.07 |  |  |  |
| SPEELNKYYASLRHYLNLVTRQRY [AVpeptide 27, (R19K)] | 0.66 | 0.08 |  |  |  |  |
| SPEELNRLLASLRHLLNLVTRQRY [AVpeptide 32, (Y20L, Y21L, Y27L)] |  |  |  |  | increased inhibition of biofilm formation |  |
| SPEELNRYLASLRHYLNLVTRQRY [AVpeptide 28, (Y21L)] |  | 0.09 and 0.17 |  |  |  |  |
| SPEELNRYYASLRHYINLVTRQRY [AVpeptide 29, (L28I)] | 0.58 | 0.04 |  |  |  |  |
| SPEELNRYYASLRHYLNLVTRQ [AVpeptide 15, (13-34)] | 0.96 | 0.78 | 0.69 |  |  |  |
